Measurements published in publication PMC8080777, “Discovery, optimization, and evaluation of non-bile acid FXR/TGR5 dual agonists” (Scientific Reports, 2021).
Values belong to the molecule of their own block, whether it stands above or below them.

Experiments:
FXR = details: cited from earlier work
TGR5 = target: T1, TGR5 (Homo sapiens, UniProt Q8TDU6); details: cited from earlier work
T1 construct: host or cells: CHO cells
T1 sequence (Q8TDU6 1-330): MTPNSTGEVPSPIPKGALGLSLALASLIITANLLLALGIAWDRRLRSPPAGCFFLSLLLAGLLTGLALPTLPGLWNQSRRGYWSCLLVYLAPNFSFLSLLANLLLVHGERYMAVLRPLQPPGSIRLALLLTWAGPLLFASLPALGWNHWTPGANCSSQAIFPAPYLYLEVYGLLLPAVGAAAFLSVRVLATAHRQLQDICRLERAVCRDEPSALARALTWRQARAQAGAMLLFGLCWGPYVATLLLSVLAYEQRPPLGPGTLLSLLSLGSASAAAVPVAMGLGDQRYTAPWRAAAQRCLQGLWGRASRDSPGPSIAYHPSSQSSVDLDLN

GPR119 = target: T2, GPR119 (Homo sapiens, UniProt Q8TDV5); test: Selectivity, cellular functional assay; type: cell-based
T2 construct: Eurofine Cerep / Eurofine Panlabs Discovery Services
Description: (§1) Compound 20p was screened against a broad panel of NRs and GPCRs to determine its agonist activity in vitro. […]
(§2) The selectivity tests of compound 20p were investigated by Eurofine Cerep (86600, Celle-Levescault, France) and Eurofine Panlabs Discovery Services (No. 25, Wugong, 6th Road, Wugu District, New Taipai City, Taiwan). Compound binding was caluculated as a % inhibition of the binding of radioactively labeled ligand specific for each target. Cellular agonist effect wa calculated as a % of control response to a known reference agonist for each target and cellular antagonist effect as caluculated as a % inhibition of control reference agonist response for each target at 30 µM of compound 20p.
(§3) 12.3%; CAR -2.5%, PPAR alpha 0.0%; PPAR delta -3.6%; PPAR gamma -1.0%; PXR 4.5%; ER alpha -16.6%; ER beta 17% at 30 µM.

CAR = target: T3, CAR (Homo sapiens, UniProt Q14994); test: Selectivity, NR functional assay; type: cell-based
T3 construct: Eurofine Cerep / Eurofine Panlabs Discovery Services
Description: as §1, §2, §3

LXR alpha = target: T4, LXR alpha (Homo sapiens, UniProt Q13133); test: Selectivity, NR functional assay; type: cell-based
T4 construct: Eurofine Cerep / Eurofine Panlabs Discovery Services
Description: as §1, §2, §3

LXR beta = target: T5, LXR beta (Homo sapiens, UniProt P55055); test: Selectivity, NR functional assay; type: cell-based
T5 construct: Eurofine Cerep / Eurofine Panlabs Discovery Services
Description: as §1, §2, §3

PPAR alpha = target: T6, PPAR alpha (Homo sapiens, UniProt Q07869); test: Selectivity, NR functional assay; type: cell-based
T6 construct: Eurofine Cerep / Eurofine Panlabs Discovery Services
Description: as §1, §2, §3

PPAR delta = target: T7, PPAR delta (Homo sapiens, UniProt Q03181); test: Selectivity, NR functional assay; type: cell-based
T7 construct: Eurofine Cerep / Eurofine Panlabs Discovery Services
Description: as §1, §2, §3

PPAR gamma = target: T8, PPAR gamma (Homo sapiens, UniProt P37231); test: Selectivity, NR functional assay; type: cell-based
T8 construct: Eurofine Cerep / Eurofine Panlabs Discovery Services
Description: as §1, §2, §3

PXR = target: T9, PXR (Homo sapiens, UniProt O75469); test: Selectivity, NR functional assay; type: cell-based
T9 construct: Eurofine Cerep / Eurofine Panlabs Discovery Services
Description: as §1, §2, §3

ER alpha = target: T10, ER alpha (Homo sapiens, UniProt P03372); test: Selectivity, binding assay
T10 construct: Eurofine Cerep / Eurofine Panlabs Discovery Services
Description: as §1, §2, §3

ER beta = target: T11, ER beta (Homo sapiens, UniProt Q92731); test: Selectivity, binding assay
T11 construct: Eurofine Cerep / Eurofine Panlabs Discovery Services
Description: as §1, §2, §3

RXR alpha = target: T12, RXR alpha (Homo sapiens, UniProt P19793); test: Selectivity, binding assay
T12 construct: Eurofine Cerep / Eurofine Panlabs Discovery Services
Description: as §1, §2, §3

GPCRs and NRs = test: Broad panel of NRs and GPCRs; details: in vitro agonist activity
Description: as §1, §2, §3

T10 sequence (P03372 whole entry): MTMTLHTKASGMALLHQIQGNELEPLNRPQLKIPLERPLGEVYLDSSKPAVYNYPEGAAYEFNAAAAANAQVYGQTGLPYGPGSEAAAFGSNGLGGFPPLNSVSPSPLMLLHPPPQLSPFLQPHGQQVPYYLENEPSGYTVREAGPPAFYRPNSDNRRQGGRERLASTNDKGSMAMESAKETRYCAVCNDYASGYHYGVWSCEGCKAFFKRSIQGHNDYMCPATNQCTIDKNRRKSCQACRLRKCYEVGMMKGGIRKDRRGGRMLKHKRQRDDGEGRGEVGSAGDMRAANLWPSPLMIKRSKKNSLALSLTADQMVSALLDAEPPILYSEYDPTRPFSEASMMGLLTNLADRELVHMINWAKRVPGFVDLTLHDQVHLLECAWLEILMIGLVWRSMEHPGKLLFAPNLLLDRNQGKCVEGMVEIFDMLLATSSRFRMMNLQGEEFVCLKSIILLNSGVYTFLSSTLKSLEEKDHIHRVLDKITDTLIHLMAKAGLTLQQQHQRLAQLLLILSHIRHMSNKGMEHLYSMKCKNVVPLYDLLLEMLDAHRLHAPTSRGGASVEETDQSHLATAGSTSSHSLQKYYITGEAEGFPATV
T4 sequence (Q13133 whole entry): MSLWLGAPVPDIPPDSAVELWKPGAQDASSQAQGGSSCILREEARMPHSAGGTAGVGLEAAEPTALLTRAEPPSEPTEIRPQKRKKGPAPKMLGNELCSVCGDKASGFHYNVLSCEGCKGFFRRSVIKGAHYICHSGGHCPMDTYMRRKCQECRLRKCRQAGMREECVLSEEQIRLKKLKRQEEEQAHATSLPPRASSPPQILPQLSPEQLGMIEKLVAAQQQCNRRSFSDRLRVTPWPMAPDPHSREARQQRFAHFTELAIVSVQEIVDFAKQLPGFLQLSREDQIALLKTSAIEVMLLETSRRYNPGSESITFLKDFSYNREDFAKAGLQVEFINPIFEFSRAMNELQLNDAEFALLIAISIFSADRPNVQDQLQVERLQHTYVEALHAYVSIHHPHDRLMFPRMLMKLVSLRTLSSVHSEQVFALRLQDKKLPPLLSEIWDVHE
T8 sequence (P37231 whole entry): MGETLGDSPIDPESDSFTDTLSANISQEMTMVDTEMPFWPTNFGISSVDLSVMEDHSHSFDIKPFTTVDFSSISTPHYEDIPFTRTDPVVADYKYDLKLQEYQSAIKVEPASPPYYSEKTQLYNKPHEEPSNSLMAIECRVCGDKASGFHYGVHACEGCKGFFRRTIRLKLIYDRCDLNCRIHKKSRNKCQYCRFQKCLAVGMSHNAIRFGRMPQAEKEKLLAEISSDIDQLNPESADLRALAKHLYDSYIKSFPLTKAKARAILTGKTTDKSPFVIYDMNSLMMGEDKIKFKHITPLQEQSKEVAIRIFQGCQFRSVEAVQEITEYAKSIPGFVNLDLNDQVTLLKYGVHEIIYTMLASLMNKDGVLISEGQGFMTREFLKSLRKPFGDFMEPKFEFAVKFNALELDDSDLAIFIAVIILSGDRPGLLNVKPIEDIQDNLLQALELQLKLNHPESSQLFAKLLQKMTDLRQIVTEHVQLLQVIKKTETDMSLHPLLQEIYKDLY
T3 sequence (Q14994 whole entry): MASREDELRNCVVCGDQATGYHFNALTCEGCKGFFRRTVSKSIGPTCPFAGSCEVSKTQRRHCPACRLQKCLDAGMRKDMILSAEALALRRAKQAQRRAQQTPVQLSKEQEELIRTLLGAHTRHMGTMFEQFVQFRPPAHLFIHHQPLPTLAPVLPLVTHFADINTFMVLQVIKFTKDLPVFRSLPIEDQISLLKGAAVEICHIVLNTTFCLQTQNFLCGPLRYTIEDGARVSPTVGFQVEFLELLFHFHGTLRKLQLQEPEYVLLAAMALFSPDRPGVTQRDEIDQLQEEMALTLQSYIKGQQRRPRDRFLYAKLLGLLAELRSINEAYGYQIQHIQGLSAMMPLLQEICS
T11 sequence (Q92731 whole entry): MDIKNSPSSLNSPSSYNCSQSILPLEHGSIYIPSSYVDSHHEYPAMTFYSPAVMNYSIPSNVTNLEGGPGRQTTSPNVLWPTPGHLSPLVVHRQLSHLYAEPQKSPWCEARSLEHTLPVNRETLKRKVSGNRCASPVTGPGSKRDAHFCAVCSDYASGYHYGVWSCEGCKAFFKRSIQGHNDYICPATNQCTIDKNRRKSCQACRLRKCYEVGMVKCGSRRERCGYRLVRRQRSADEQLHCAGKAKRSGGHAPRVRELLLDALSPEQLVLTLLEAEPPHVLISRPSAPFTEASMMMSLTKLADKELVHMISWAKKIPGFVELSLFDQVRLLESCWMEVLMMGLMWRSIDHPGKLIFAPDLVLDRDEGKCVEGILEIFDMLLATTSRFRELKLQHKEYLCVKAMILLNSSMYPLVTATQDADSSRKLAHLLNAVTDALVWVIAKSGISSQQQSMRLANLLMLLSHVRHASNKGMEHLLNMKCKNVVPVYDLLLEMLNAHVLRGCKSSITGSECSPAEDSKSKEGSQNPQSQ
T2 sequence (Q8TDV5 whole entry): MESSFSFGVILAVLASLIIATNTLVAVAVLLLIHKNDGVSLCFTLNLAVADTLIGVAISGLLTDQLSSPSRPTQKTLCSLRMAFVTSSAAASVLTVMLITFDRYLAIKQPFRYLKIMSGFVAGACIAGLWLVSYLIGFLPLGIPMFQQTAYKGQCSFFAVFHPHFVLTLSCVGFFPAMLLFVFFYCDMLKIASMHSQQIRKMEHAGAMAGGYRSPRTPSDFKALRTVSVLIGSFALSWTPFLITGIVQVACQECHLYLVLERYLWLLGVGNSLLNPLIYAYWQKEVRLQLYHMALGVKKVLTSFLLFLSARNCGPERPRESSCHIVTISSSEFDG
T9 sequence (O75469 whole entry): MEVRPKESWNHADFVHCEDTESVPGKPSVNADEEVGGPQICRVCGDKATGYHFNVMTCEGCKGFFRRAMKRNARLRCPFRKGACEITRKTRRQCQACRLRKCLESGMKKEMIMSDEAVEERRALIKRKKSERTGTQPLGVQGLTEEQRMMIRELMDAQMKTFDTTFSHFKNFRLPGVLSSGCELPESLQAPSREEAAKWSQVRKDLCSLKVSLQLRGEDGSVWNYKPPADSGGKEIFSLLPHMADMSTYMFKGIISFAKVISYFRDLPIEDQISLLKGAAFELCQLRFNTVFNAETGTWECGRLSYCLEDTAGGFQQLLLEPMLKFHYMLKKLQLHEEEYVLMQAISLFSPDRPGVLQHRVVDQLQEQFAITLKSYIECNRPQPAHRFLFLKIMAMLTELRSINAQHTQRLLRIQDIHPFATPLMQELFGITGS
T7 sequence (Q03181 whole entry): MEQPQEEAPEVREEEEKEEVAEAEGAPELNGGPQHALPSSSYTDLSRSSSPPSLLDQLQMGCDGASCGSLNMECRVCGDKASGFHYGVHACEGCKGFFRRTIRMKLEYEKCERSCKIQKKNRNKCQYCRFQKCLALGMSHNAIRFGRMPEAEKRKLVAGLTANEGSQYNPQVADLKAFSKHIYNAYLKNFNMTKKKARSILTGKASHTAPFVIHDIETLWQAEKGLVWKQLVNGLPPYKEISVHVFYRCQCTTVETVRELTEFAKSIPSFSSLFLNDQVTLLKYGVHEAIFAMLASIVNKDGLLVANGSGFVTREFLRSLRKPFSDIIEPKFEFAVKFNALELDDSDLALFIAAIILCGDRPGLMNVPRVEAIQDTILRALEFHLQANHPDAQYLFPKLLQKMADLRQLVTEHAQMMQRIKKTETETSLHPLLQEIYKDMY
T6 sequence (Q07869 whole entry): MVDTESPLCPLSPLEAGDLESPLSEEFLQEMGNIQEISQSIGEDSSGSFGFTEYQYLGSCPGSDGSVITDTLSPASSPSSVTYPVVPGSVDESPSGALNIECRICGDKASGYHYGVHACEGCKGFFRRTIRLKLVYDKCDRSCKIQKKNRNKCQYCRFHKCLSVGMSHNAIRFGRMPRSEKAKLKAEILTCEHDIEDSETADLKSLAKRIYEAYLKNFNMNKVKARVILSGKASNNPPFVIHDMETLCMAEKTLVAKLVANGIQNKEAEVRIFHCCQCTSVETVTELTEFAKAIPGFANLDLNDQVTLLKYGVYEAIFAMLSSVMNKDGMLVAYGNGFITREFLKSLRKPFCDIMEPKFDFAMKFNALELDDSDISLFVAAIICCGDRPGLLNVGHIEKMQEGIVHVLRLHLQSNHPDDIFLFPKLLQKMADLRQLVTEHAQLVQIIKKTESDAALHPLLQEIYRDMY
T12 sequence (P19793 whole entry): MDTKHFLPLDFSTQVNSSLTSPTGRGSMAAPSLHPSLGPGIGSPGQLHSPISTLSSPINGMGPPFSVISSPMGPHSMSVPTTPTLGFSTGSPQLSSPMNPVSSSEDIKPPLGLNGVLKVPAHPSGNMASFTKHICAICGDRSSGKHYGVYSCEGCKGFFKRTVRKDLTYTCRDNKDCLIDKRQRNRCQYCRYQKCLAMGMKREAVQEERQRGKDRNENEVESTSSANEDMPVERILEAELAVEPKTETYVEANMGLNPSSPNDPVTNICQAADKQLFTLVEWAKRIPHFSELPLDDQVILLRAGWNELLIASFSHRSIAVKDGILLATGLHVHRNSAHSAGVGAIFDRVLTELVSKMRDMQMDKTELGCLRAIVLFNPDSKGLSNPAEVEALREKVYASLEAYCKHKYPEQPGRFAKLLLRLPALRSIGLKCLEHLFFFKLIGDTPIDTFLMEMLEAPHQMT

SMILES: COC(=O)/C=C/c1cccc(N(Cc2ccc(-c3ccc(N(C)C)cc3)cc2)C(=O)C2CCCCC2)c1 [Compound 7, Fexaramine, reference compound]
Reported FXR activity (in words) (FXR): specific and potent partial agonist against FXR
Reported TGR5 activity (in words) (TGR5): no significant agonist activity against TGR5

activity at 30 µM (GPR119; 30 µM, read-out: GPR119 cellular agonist effect, % of control response to reference agonist): 1.8%
EC50 (GPR119; cellular functional assay): > 30 µM
activity at 30 µM (CAR; 30 µM, read-out: CAR agonist effect, % of control response to reference agonist): -2.5%
EC50 (CAR; NR functional assay): > 30 µM
activity at 30 µM (LXR alpha; 30 µM, read-out: LXR alpha agonist effect, % of control response to reference agonist): 0.2%
EC50 (LXR alpha; NR functional assay): > 30 µM
activity at 30 µM (LXR beta; 30 µM, read-out: LXR beta agonist effect, % of control response to reference agonist): 3.7%
EC50 (LXR beta; NR functional assay): > 30 µM
activity at 30 µM (PPAR alpha; 30 µM, read-out: PPAR alpha agonist effect, % of control response to reference agonist): 0%
EC50 (PPAR alpha; NR functional assay): > 30 µM
activity at 30 µM (PPAR delta; 30 µM, read-out: PPAR delta agonist effect, % of control response to reference agonist): -3.6%
EC50 (PPAR delta; NR functional assay): > 30 µM
activity at 30 µM (PPAR gamma; 30 µM, read-out: PPAR gamma agonist effect, % of control response to reference agonist): -1%
EC50 (PPAR gamma; NR functional assay): > 30 µM
activity at 30 µM (PXR; 30 µM, read-out: PXR agonist effect, % of control response to reference agonist): 4.5%
EC50 (PXR; NR functional assay): > 30 µM
inhibition at 30 µM (ER alpha; 30 µM, read-out: ER alpha binding, % inhibition of the binding of radioactively labeled ligand): -16.6%
EC50 (ER alpha; binding assay): > 30 µM
inhibition at 30 µM (ER beta; 30 µM, read-out: ER beta binding, % inhibition of the binding of radioactively labeled ligand): 17%
EC50 (ER beta; binding assay): > 30 µM
inhibition at 30 µM (RXR alpha; 30 µM, read-out: RXR alpha binding, % inhibition of the binding of radioactively labeled ligand): -12.3%
EC50 (RXR alpha; binding assay): > 30 µM
SMILES: COc1cc(Cl)cc(N(CC23CCC(c4ccc(OC)c(C#N)c4)(CC2)CC3)C(=O)c2ccncc2C)c1 [Compound 20p]
Off-target activity against GPCRs and NRs (in words) (GPCRs and NRs): no significant off-target activity against GPCRs and NRs
